Patent publication US20170355705A1 (GlaxoSmithKline Intellectual Property (No.2) Limited, priority 2014, published 2017)

These compounds were tested against T1, SIRT1 (Homo sapiens, UniProt Q96EB6) (assay: Trp mass spectrometry assay of SIRT1 activity (EC1.5, percent maximum activation)). Details: Trp mass spectrometry assay; 0.5 μM peptide substrate, 120 μM βNAD+, 10 nM SIRT1, 25 minutes at 25° C.
T1 sequence (Q96EB6 1-747): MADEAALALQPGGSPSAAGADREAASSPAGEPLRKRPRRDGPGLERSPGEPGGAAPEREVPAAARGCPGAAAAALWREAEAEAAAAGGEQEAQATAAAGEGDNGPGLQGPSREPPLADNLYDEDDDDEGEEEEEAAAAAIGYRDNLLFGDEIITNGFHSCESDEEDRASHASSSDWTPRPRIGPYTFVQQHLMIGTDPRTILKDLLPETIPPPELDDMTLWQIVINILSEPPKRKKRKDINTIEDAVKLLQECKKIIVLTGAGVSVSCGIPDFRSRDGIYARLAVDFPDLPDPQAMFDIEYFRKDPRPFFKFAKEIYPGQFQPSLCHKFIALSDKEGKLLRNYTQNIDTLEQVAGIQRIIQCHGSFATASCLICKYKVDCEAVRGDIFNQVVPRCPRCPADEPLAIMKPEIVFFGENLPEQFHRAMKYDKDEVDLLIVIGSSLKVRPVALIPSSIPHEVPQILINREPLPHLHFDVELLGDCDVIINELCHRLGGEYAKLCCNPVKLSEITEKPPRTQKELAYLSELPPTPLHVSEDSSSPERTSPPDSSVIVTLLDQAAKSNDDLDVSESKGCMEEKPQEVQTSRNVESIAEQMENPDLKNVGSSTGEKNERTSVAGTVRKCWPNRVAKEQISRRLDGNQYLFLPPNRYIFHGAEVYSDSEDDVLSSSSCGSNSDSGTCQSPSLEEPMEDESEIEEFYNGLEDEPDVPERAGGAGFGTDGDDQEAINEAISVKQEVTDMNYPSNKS
Format: biochemical
Summary of the method: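 N-terminal His-tagged human SIRT1, expressed in BL21(DE3) and purified, was incubated 25 min with an acetylated Trp peptide and NAD plus test compound at varying concentrations, then quenched with formic acid. OAADPR or deacetylated peptide was quantified by mass spectrometry versus compound-free control; EC1.5 is the concentration giving 50% activity increase, with percent maximum activation.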
`Cc1cc(-c2ccc3c(n2)N(C(=O)Nc2cc(N4C[C@@H](C)O[C@@H](C)C4)ccn2)[C@H]2CCN3C2)ccn1` [Example 356] was tested, and the “TRP MAX RESP (percent maximum fold activation)” value was “A (Fold activation ≧150%)”. For `Cc1cc(-c2ccc3c(n2)N(C(=O)Nc2cc(N4C[C@@H](C)O[C@@H](C)C4)ccn2)[C@H]2CCN3C2)ccn1` [Example 357, (4S)-N-(4-((2S,6R)-2,6-dimethylmorpholino)pyridin-2-yl)-7-(2-methylpyridin-4-yl)-3,4-dihydro-1,4-methanopyrido[2,3-b][1,4]diazepine-5(2H)-carboxamide], the “TRP Activity (EC1.5, concentration of test compound that results in 150% activation of SIRT1)” value was “A (EC1.5<1 μM)” and the “TRP MAX RESP (percent maximum fold activation)” value was “A (Fold activation ≧150%)”. For `Cc1cc(-c2ccc3c(n2)N(C(=O)Nc2nccc(-c4cn(C)nc4C)n2)[C@H]2CCN3C2)ccn1` [Example 358, (4S)-N-(4-(1,3-dimethyl-1H-pyrazol-4-yl)pyrimidin-2-yl)-7-(2-methylpyridin-4-yl)-3,4-dihydro-1,4-methanopyrido[2,3-b][1,4]diazepine-5(2H)-carboxamide], the “TRP Activity (EC1.5, concentration of test compound that results in 150% activation of SIRT1)” value was “B (EC1.5 1-25 μM)” and the “TRP MAX RESP (percent maximum fold activation)” value was “A (Fold activation ≧150%)”. In the case of `O=C(Nc1ncnc2cccc(F)c12)N1c2nc(-c3cccc(C(F)(F)F)c3)ccc2N2CC[C@H]1C2` [Example 361], the “TRP MAX RESP (percent maximum fold activation)” value is reported as “A (Fold activation ≧150%)”. `Cc1cc(-c2ccc3c(n2)N(C(=O)Nc2cc(-c4c(C)nn(C)c4C)ccn2)[C@H]2CCN3C2)ccn1` [Example 365] was tested, and the “TRP MAX RESP (percent maximum fold activation)” value was “A (Fold activation ≧150%)”. For `Cc1cc(-c2ccc3c(n2)N(C(=O)Nc2cc(-c4cnn(CC(F)(F)F)c4)ccn2)[C@H]2CCN3C2)ccn1` [Example 366], the “TRP MAX RESP (percent maximum fold activation)” value was “A (Fold activation ≧150%)”. For `Cc1cc(-c2ccc3c(n2)N(C(=O)Nc2cc(N4CCCC4)ccn2)[C@H]2CCN3C2)ccn1` [Example 367], the “TRP MAX RESP (percent maximum fold activation)” value was “A (Fold activation ≧150%)”. For `O=C(NCCO)N1c2nc(-c3cccc(C(F)(F)F)c3)ccc2N2CC[C@H]1C2` [Example 378, (4S)-N-(2-hydroxyethyl)-7-(3-(trifluoromethyl)phenyl)-3,4-dihydro-1,4-methanopyrido[2,3-b][1,4]diazepine-5(2H)-carboxamide], the “TRP Activity (EC1.5, concentration of test compound that results in 150% activation of SIRT1)” value was “B (EC1.5 1-25 μM)” and the “TRP MAX RESP (percent maximum fold activation)” value was “A (Fold activation ≧150%)”. For `NC(=O)N1c2nc(-c3cccc(C(F)(F)F)c3)ccc2N2CC[C@H]1C2` [Example 379, (4S)-7-(3-(trifluoromethyl)phenyl)-3,4-dihydro-1,4-methanopyrido[2,3-b][1,4]diazepine-5(2H)-carboxamide], the “TRP Activity (EC1.5, concentration of test compound that results in 150% activation of SIRT1)” value was “C (EC1.5>25 μM)” and the “TRP MAX RESP (percent maximum fold activation)” value was “B (Fold Activation <150%)”.
